In one data set the target is CYP2D6 (Homo sapiens, UniProt P10635). The experiment in a line: Inhibition of human CYP2D6 at 10 uM preincubated for 10 mins followed by NADPH addition and measured after 20 mins by luciferin reagent based luminescence analysis. The class given is ADME. Conditions: time 30 min.
The next data set concerns the target T1, CYP1A2 (Homo sapiens, UniProt P05177).
T1 sequence (P05177 whole entry): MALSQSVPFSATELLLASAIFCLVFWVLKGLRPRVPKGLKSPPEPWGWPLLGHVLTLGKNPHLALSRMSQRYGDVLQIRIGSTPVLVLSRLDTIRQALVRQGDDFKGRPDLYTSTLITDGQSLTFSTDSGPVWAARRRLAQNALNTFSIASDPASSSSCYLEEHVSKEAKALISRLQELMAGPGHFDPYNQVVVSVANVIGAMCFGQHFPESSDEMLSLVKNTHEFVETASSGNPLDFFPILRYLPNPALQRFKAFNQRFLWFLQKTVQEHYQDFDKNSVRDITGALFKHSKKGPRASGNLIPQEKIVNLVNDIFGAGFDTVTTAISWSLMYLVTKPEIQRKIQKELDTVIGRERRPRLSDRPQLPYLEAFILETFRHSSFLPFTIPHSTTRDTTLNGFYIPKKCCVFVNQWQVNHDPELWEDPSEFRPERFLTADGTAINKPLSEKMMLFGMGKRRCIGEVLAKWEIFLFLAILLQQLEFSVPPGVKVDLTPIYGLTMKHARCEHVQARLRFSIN
Kind of data set: Inhibition of human CYP1A2 at 10 uM preincubated for 10 mins followed by NADPH addition and measured after 20 mins by luciferin reagent based luminescence analysis. The class given is ADME. Conditions: time 30 min.

Data set [1] has as its system Hepatitis B virus. Kind of data set: Antiviral activity against Hepatitis B virus infected in human HepG2 cells expressing NTCP assessed as inhibition of viral entry by measuring intracellular HBV DNA at 1 uM preincubated with compound for 2 hrs followed by viral infection and measured after 3 hrs by qPCR analysis relative to control. The class given is functional. Particulars: time 5 hrs. (In general: Real-time PCR tracks product formation cycle by cycle.)

A short description of data set [2]: Cytotoxicity against human HepG2 cells assessed as reduction in cell viability incubated for 24 hrs by MTS assay. The class given is toxicity, cell-based. Conditions: read-out: LC50.
For the next data set, the target named is CYP3A4 (Homo sapiens, UniProt P08684). Kind of data set: Inhibition of human CYP3A4 at 10 uM preincubated for 10 mins followed by NADPH addition and measured after 20 mins by luciferin reagent based luminescence analysis. The class given is ADME. Conditions: time 30 min.
The next data set deals with CYP2C19 (Homo sapiens, UniProt P33261). Kind of data set: Inhibition of human CYP2C19 at 10 uM preincubated for 10 mins followed by NADPH addition and measured after 20 mins by luciferin reagent based luminescence analysis. The data set is classed as ADME. Conditions: time 30 min.
The target of a further data set is CYP2C9 (Homo sapiens, UniProt P11712). Kind of data set: Inhibition of human CYP2C9 at 10 uM preincubated for 10 mins followed by NADPH addition and measured after 20 mins by luciferin reagent based luminescence analysis. Particulars: time 30 min. The class given is ADME.
Data set [3] concerns the target T2, hERG (KCNH2) (Homo sapiens, UniProt Q12809). Kind of data set: in vitro.
Description: Inhibition of hERG at 10 uM incubated for 2 hrs by fluorescence polarization based assay relative to control
Data set [4] has as its target T2, hERG (KCNH2). Kind of data set: Inhibition of hERG incubated for 2 hrs by fluorescence polarization based assay. The data set is classed as toxicity.
Data set [5] has as its system Hepatitis B virus. The experiment in a line: Antiviral activity against Hepatitis B virus infected in human HepG2 cells expressing NTCP assessed as inhibition of viral entry by measuring intracellular HBV DNA preincubated with compound for 2 hrs followed by viral infection and measured after 3 hrs by qPCR analysis. The class given is functional, organism-based.

The structures appear in SMILES notation.

T2 sequence (Q12809 whole entry): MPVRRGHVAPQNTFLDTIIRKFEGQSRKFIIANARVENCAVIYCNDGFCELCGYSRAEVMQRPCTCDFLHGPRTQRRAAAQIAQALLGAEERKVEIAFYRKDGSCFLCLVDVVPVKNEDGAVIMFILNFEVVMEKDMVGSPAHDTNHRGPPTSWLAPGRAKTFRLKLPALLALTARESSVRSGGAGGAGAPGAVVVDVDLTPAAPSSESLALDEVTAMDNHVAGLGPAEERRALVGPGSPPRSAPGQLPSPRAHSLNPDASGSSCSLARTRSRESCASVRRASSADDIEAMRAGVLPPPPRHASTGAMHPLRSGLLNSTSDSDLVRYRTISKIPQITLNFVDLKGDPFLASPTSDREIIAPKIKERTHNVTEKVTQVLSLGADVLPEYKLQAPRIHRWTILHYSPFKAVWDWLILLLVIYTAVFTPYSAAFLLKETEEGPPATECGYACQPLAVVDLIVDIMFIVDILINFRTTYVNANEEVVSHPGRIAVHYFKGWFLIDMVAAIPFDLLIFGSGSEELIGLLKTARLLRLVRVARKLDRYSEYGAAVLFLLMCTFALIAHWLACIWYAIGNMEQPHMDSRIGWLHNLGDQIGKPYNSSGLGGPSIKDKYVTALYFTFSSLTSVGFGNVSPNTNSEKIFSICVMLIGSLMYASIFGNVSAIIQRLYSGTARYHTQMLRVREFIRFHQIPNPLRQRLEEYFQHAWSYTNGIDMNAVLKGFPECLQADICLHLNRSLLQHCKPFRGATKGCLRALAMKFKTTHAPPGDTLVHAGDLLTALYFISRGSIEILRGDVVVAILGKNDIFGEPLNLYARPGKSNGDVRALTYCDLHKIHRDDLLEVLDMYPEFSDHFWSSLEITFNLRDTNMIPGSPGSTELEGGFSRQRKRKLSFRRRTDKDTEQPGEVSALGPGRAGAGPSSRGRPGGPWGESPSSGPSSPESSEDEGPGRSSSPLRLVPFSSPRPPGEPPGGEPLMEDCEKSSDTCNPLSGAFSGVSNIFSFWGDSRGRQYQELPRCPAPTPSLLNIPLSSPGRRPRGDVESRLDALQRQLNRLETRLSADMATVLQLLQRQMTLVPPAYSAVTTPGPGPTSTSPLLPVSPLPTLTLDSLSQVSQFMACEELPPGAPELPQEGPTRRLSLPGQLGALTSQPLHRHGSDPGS
Sequence of CYP2C19 (P33261 whole entry): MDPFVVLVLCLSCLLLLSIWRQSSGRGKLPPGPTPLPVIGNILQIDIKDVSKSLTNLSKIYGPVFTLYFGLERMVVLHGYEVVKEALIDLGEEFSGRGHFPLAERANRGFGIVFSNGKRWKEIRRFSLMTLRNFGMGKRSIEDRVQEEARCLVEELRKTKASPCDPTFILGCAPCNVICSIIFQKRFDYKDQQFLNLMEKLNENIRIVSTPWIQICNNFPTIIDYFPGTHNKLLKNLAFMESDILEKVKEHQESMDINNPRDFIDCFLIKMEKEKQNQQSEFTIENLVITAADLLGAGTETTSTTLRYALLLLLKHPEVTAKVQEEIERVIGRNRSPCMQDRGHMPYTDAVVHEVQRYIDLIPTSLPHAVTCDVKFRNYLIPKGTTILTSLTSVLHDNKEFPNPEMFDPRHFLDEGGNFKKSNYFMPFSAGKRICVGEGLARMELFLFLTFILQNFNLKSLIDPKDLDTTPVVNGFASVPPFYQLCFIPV
Sequence of CYP2D6 (P10635 whole entry): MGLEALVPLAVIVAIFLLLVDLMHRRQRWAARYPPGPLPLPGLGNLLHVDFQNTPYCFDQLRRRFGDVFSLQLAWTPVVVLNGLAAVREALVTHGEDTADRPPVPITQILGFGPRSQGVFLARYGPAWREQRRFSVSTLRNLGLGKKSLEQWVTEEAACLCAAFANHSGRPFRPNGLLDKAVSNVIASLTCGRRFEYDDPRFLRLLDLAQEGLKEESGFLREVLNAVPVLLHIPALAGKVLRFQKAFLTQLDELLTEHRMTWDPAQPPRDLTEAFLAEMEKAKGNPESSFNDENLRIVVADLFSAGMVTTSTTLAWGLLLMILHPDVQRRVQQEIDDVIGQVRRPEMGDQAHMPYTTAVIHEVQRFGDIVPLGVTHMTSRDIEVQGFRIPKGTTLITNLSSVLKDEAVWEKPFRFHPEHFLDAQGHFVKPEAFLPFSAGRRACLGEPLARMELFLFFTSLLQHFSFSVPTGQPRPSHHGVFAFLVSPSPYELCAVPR
Sequence of CYP2C9 (P11712 whole entry): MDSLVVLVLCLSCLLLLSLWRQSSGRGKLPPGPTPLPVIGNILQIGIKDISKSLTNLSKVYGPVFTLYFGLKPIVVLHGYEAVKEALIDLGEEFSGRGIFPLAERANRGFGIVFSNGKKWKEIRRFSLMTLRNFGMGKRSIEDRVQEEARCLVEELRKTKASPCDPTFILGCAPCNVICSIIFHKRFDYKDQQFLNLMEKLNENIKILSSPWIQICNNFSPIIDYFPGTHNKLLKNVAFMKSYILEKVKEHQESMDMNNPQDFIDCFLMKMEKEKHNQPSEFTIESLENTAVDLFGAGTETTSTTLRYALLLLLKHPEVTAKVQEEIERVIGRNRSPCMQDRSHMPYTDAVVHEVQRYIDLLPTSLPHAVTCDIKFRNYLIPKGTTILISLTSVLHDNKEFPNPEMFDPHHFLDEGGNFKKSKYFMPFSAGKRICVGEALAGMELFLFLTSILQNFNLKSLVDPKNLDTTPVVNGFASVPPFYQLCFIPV
Sequence of CYP3A4 (P08684 whole entry): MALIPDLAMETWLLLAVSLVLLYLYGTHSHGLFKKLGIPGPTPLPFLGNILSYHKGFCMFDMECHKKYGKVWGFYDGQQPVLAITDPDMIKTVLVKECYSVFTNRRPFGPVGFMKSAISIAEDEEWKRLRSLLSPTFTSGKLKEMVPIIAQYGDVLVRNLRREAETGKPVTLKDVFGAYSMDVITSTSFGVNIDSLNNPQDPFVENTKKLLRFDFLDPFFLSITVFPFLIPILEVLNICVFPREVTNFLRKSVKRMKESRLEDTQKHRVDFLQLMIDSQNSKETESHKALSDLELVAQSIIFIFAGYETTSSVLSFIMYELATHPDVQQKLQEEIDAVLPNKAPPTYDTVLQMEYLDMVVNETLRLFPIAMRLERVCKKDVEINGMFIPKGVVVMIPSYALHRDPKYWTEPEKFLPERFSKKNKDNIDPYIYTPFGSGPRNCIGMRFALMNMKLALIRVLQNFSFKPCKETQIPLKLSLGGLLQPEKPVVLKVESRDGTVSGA

Turning to `CCC[C@@H]1NC(=O)[C@H](CC(C)C)N(C)C(=O)[C@H](CC(C)C)N(C)C(=O)CN(CCO)C(=O)[C@H](CC(C)C)N(C)C(=O)[C@@H](C)NC(=O)[C@@H](CCC(N)=O)NC(=O)[C@H](CC(C)C)N(C)C(=O)[C@H](C(C)C)NC(=O)[C@H](CC(C)C)N(C)C(=O)CN(C)C1=O`, the inhibition (as a rule, the change of the read-out against control, counted positive when it falls) at 20 min, 10 µM against CYP2D6 was found to be 35.1%; against CYP1A2 it was 8.4%; against CYP3A4, 35.5%; against CYP2C19, 29.4%; on CYP2C9 it was 14.8%. The inhibition at 1 µM with Hepatitis B virus [1] stood at 78%. Besides, the CC50 at 24 h in data set [2] was > 200 µM. For the same compound, the inhibition at 2 h, 10 µM against hERG (KCNH2) [3] is 19.1%. The EC50 – broadly, the concentration needed to bring the measured effect to its halfway point – at 2 h at hERG (KCNH2) [4] was > 10 µM. The 50% inhibitory concentration (IC50) – broadly, the midpoint of a concentration-inhibition curve – with Hepatitis B virus [5] stood at 0.36 µM.

In the case of `CN(C)CCC=C1c2ccccc2CCc2ccccc21` [AMITRIPTYLINE], the inhibition at 20 min, 10 µM against CYP2C19 worked out at 92.1%.

On to `C=C[C@H]1C[N@@]2CC[C@H]1C[C@@H]2[C@@H](O)c1ccnc2ccc(OC)cc12` [QUINIDINE], for which, on CYP2D6, the inhibition at 20 min, 10 µM is 97.5%.

Source of the values: ChEMBL document CHEMBL5126594, “Entry inhibition of hepatitis B virus using cyclosporin O derivatives with peptoid side chain incorporation” (Bioorg Med Chem, 2022).
